# Assay results published in patent publication US9296760B2, “Antibacterial compounds” (JANSSEN SCIENCES IRELAND UC, priority 2012, dated 2016).
# Columns and labels:
# [1] = molecular target: T1, S. aureus ATCC 29213 FabI (Staphylococcus aureus, UniProt Q6GI75); experiment: Staphylococcus aureus FabI enzyme inhibition assay; type: biochemical; conditions: NADH consumption, 30 minutes, read-out: FabI (300.235) IC50 (converted)
# T1 sequence (Q6GI75 1-256): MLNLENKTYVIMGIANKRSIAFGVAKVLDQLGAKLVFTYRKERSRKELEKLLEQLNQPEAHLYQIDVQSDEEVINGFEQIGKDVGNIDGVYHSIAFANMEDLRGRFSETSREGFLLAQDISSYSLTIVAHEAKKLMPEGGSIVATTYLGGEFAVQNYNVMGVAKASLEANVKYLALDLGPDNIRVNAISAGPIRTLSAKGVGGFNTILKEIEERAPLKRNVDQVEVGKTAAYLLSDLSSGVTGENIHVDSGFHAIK
# Protocol: Y.1 FabI Enzyme Inhibition: Staphylococcus aureus FabI Enzyme Inhibition Assay
# FabI enzyme inhibition assays were carried out in half-area, 384-well microtitre plates. […] The reaction mixtures were incubated for 30 minutes at room temperature and the reaction was stopped by adding 200 mM Tris buffer (pH 9.0) to create a pH-shift. The consumption of NADH was monitored by measuring the change in absorbance at […]. By comparing sample readings to those of negative (absence of compound) and positive (absence of enzyme) controls, the percent inhibition of enzymatic activity of the compounds was determined A best-fit curve is fitted by a minimum of squares method. From this an IC50-value (expressed in μg/ml), resulting in 50% inhibition of enzymatic activity, was obtained.
# [2] = system: Staphylococcus aureus ATCC 29213; experiment: Antibacterial susceptibility testing, IC90 determination (broth microdilution, resazurin); type: cell-based; conditions: 90% inhibitory concentration for bacterial growth; for STA (361.159) IC90: S. aureus ATCC 29213; for IC90: Staphylococcus aureus, ATCC29213, S. aureus ATCC 29213, read-out: STA (361.159) IC90
# Protocol: Y.2 In Vitro Method for Testing Compounds for Antibacterial Activity Against Various Bacterial Strains
# Preparation of Bacterial Suspensions for Susceptibility Testing
# The following bacteria were used: Staphylococcus aureus ATCC 29213, methicillin-resistant Staphylococcus aureus (MRSA) ATCC 700788 and Escherichia coli ATCC 35218. The bacteria used in this study were grown overnight in flasks containing 100 ml Mueller-Hinton broth (Difco cat. nr. 0757-17) in sterile de-ionized water, with shaking, at 37° C. Stocks were store at −70° C. until use.
# Bacteria were incubated on a tryptic soy agar plate containing 5% sheep blood (Becton Dickinson cat. nr. 254053) for 18-24 hours at 35° C. in aerobic conditions (first passage). For the second passage, fresh Mueller-Hinton broth is inoculated with 5-10 colonies and grown overnight at 35° C. until turbidity (reaching log-phase) in aerobic conditions is reached. The bacterial suspension is then adjusted to 0.5 McFarland density and further diluted 1:100 in Mueller Hinton broth medium. This is used as inoculum.
# The result(s) are depicted the table below (for STA ATCC 29213).
# Antibacterial Susceptibility Testing: IC90 Determination
# (§1) MIC assays were performed by the broth microdilution method in a 96-well format (flat-bottom microtitre plates) with a final volume of 0.1 ml Mueller Hinton broth containing two-fold serial dilutions of compounds and inoculated with 5×10^5 CFU/ml of bacteria (standard inoculum size according to CLSI guidelines). Inhibitors are typically varied over the range of 63 to 0.49 μM. The final DMSO concentration in the assay was 1.25% (maximum tolerable DMSO concentration=6%). In the assays where the effect of human serum on the activity of the compounds against S. aureus was tested, human serum was added at a final concentration of 10%. The plates were incubated at 35° C. for 16-20 hours. At the end of incubation the bacterial growth was quantified fluorometrically. For this, resazurin was added to all wells and the plates were re-incubated. The incubation time is dependent on the type of bacteria. A change in color from blue to pink indicated the growth of bacteria. The fluorescence was read in computer-controlled fluorometer (Fluoroskan Ascent FL, Labsystems) at an excitation wavelength 540 nm and an emission wavelength of 590 nm. The % growth inhibition achieved by the compounds was calculated according to standard methods. The IC90 (expressed in μg/ml) was defined as the 90% inhibitory concentration for bacterial growth. A panel of reference compounds were simultaneously tested for QC approval.
# [3] = system: S. aureus; experiment: Antibacterial susceptibility testing, IC90 determination with 10% human serum; type: cell-based, Staphylococcus aureus; conditions: S. aureus with human serum at final concentration of 10%; for IC90: Staphylococcus aureus, read-out: STA + 10% HS (361.169) IC90
# Protocol: as §1, with “Antibacterial Susceptibility Testing: IC90 Determination MIC” for “MIC”, “approval. The results are depicted in the table(s) below (STA+10% HS).” for “approval.”
# [4] = system: Human HelaM cells; experiment: Cytotoxicity MTT assay; type: cell-based; conditions: 72 hours
# Protocol: (§2) Cytotoxicity of the compounds was evaluated using the MTT assay. Human HelaM cells grown in 96-well plates were exposed to serial dilutions of the tested compounds (final volume of 0.2 ml) and incubated for 72 hours at 37° C. and 5% CO2 Inhibitors are typically varied over the range of 25 to 0.8 μM. The final DMSO concentration in the assay is 0.5%. MTT (3-(4,5-Dimethylthiazol-2-yl)-2,5-diphenyltetrazolium bromide, a tetrazole) was added and reduced to purple formazan only in living cells. Solubilization of the formazan crystals was achieved by adding 100 μl 2-propanol. Cell viability was determined by measuring the absorbance of the reduced formazan, giving a purple color, at 540 nm and 690 nm. The absorbance measured at 690 nm was automatically subtracted from the absorbance at 540 nm, to eliminate the effects of non-specific absorption. The percent cytotoxicity achieved by the compounds was calculated according to standard methods. Cytotoxicity is reported as CC50, the concentration that causes a 50% reduction in cell viability.
# (§3) The results are depicted in the table(s) below (HELAM).
# [5] = Cytotoxicity MTT assay; type: cell-based, Human; conditions: human, HelaM cells, read-out: HELAM (222.125) CC50
# Protocol: as §2, §3
IC50 [1],STA (361.159) IC90 [2],STA + 10% HS (361.169) IC90 [3],IC90 [2],IC90 [3],melting point,Structure (SMILES),HELAM (222.125) CC50 [4],CC50 at 72 h [5]
0.721 µM,0.53 µg/mL,0.60 µg/mL,–,–,–,CN1CC(=O)Nc2ncc(/C=C/C(=O)N3CCC=C(c4ccccc4)CC3)cc2C1 [compound 40],24.25 µg/mL,–
0.82 µM,–,–,0.5 µg/mL,0.46 µg/mL,198.79 °C,CN1CC(=O)Nc2ncc(/C=C/C(=O)N3CCC=C(c4ccccc4)CC3)cc2C1 [compound 38],>10.11 µg/mL,–
0.747 µM,0.46 µg/mL,0.45 µg/mL,–,–,–,O=C1CNCc2cc(/C=C/C(=O)N3CCC=C(c4ccccc4)CC3)cnc2N1 [compound 36],>19.47 µg/mL,–
~0.933 µM,–,–,< 0.21 µg/mL,0.26 µg/mL,192 °C,COc1ccc(F)cc1C1=CCCN(C(=O)/C=C/c2cnc3c(c2)CNCC(=O)N3)CC1 [compound 31],–,> 11 µg/mL
